Results taken from US11534457B2, “Use of dextran sulfate” (priority 2017, dated 2022).
Entries after “also recorded” stand apart in the source; their conditions may differ.

Columns and labels:
[1] = test system: βIII-tubulin expression in human motor neurons; experiment: βIII-tubulin immunostaining (differentiation-related protein expression); type: cell-based; conditions: 48 h
Procedure: Neurons were cultured as 40,000 cells per well and Schwann cells 3,000 cells per. Cells were treated after 24 hours. The number of cells per well depended on the growth phenotype, proliferative capacity, etc.
NeuroBlast was pre-warmed to 37° C. Cells were thawed in a 37° C. water bath for no longer than 2 min. 1 ml of media was gently added drop-wise. Cells were resuspended and transferred to a 15 ml tube containing 9 ml of medium. Cells were centrifuged at 200 relative centrifugal force (RCF) for 5 min. Pellet was resuspended in 5 ml of medium and cells were counted with the Cellometer. 40,000 cells per well were seeded in previously coated 96-well plates. Cells were incubated at 37° C. with 5% CO2. Cells were allowed to settle for 24 hours before drug treatment. […]
LMW-DS was prepared in the culture media of choice for each cell line and added to the respective wells in the doses 0.01 and 0.1 mg/ml. For cell survival assays cells were analyzed after 24 and 48 hours in eight identical wells/dose/time point. Differentiation and protein expression assay was analyzed after 48 hours, also in octuplicates. […]
The Acumen cytometer allows the direct cytometric analysis of attached cells without prior detachment. […] The protein content of the cells can also be directly measured and expressed as either ‘total protein content’ or ‘mean protein content’.

[2] = test system: BT system [CD19^+ B cells and PBMC+(a-IgM and TCR ligands)]; experiment: BioMAP BT system; type: cell-based, Human
Description: In this study LMW-DS was characterized by profiling in the BioMAP® Diversity PLUS panel. The BioMAP® panel consists of human primary cell-based systems designed to model different aspects of the human body in an in vitro format. The 12 systems in the BioMAP® Diversity PLUS panel (Table 32) allow test agent characterization in an unbiased way across a broad set of systems modeling various human disease states. The BioMA®P systems are constructed with one or more primary cell types from healthy human donors, with stimuli, such as cytokines or growth factors, added to capture relevant signaling networks that naturally occur in human tissue or pathological conditions. Vascular biology is modeled in both a Th1 (3C system) and a Th2 (4H system) inflammatory environment, as well as in a Th1 inflammatory state specific to arterial smooth muscle cells (CASM3C system). Additional systems recapitulate aspects of the systemic immune response including monocyte-driven Th1 inflammation (LPS system) or T cell stimulation (SAg system), chronic Th1 inflammation driven by macrophage activation (IMphg system) and the T cell-dependent activation of B cells that occurs in germinal centers (BT system). The BE3C system (Th1) and the BF4T system (Th2) represent airway inflammation of the lung, while the MyoF system models myofibroblast-lung tissue remodeling. Lastly, skin biology is addressed in the KF3CT system modeling Th1 cutaneous inflammation and the HDF3CGF system modeling wound healing.
Four concentrations of LMW-DS (150 nM, 440 nM, 1.3 μM, 4 μM) were investigated in the BioMAP® Diversity PLUS panel by Eurofins.
Cell types and stimuli used in each system are as follows: 3C system [HUVEC+(IL-1β, TNFα and IFNγ)], 4H system [HUVEC+(IL-4 and histamine)], LPS system [PBMC and HUVEC+LPS (TLR4 ligand)], SAg system [PBMC and HUVEC+TCR ligands], BT system [CD19^+ B cells and PBMC+(a-IgM and TCR ligands)], BF4T system [bronchial epithelial cells and HDFn+(TNFα and IL-4)], BE3C system [bronchial epithelial cells+(IL-1β, TNFα and IFNγ)], CASM3C system [coronary artery smooth muscle cells+(IL-1β, TNFα and IFNγ)], HDF3CGF system [HDFn+(IL-1β, TNFα, IFNγ, EGF, bFGF and PDGF-BB)], KF3CT system [keratinocytes and HDFn+(IL-1β, TNFα, IFNγ and TGFβ)], MyoF system [differentiated lung myofibroblasts+(TNFα and TGFβ)] and /Mphg system [HUVEC and M1 macrophages+Zymosan (TLR2 ligand)].
Systems are derived from either single cell types or co-culture systems. Adherent cell types are cultured in 96 or 384-well plates until confluence, followed by the addition of PBMC (SAg and LPS systems). The BT system consists of CD19+ B cells co-cultured with PBMC and stimulated with a BCR activator and low levels of TCR stimulation. Test agents prepared in either DMSO (small molecules; final concentration 0.1%) or PBS (biologics) are added at the indicated concentrations 1-hr before stimulation, and remain in culture for 24-hrs or as otherwise indicated (48-hrs, MyoF system; 72-hrs, BT system (soluble readouts); 168-hrs, BT system (secreted IgG)). Each plate contains drug controls (e.g., legacy control test agent colchicine at 1.1 μM), negative controls (e.g., non-stimulated conditions) and vehicle controls (e.g., 0.1% DMSO) appropriate for each system. Direct ELISA is used to measure biomarker levels of cell-associated and cell membrane targets. Soluble factors from supernatants are quantified using either HTRF® detection, bead-based multiplex immunoassay or capture ELISA. Overt adverse effects of test agents on cell proliferation and viability (cytotoxicity) are detected by sulforhodamine B (SRB) staining, for adherent cells, and alamarBlue® reduction for cells in suspension. For proliferation assays, individual cell types are cultured at subconfluence and measured at time points optimized for each system (48-hrs: 3C and CASM3C systems; 72-hrs: BT and HDF3CGF systems; 96-hrs: SAg system). […]

[3] = test system: 3C system [HUVEC+(IL-1β, TNFα and IFNγ)]; experiment: BioMAP 3C system; type: cell-based, Human
Description: (§1) In this study LMW-DS was characterized by profiling in the BioMAP® Diversity PLUS panel. The BioMAP® panel consists of human primary cell-based systems designed to model different aspects of the human body in an in vitro format. The 12 systems in the BioMAP® Diversity PLUS panel (Table 32) allow test agent characterization in an unbiased way across a broad set of systems modeling various human disease states. The BioMA®P systems are constructed with one or more primary cell types from healthy human donors, with stimuli, such as cytokines or growth factors, added to capture relevant signaling networks that naturally occur in human tissue or pathological conditions. […]
(§2) Systems are derived from either single cell types or co-culture systems. […] Test agents prepared in either DMSO (small molecules; final concentration 0.1%) or PBS (biologics) are added at the indicated concentrations 1-hr before stimulation, and remain in culture for 24-hrs or as otherwise indicated (48-hrs, MyoF system; 72-hrs, BT system (soluble readouts); 168-hrs, BT system (secreted IgG)). […] Soluble factors from supernatants are quantified using either HTRF® detection, bead-based multiplex immunoassay or capture ELISA. Overt adverse effects of test agents on cell proliferation and viability (cytotoxicity) are detected by sulforhodamine B (SRB) staining, for adherent cells, and alamarBlue® reduction for cells in suspension. […]

[4] = test system: HDF3CGF system [HDFn+(IL-1β, TNFα, IFNγ, EGF, bFGF and PDGF-BB)]; experiment: BioMAP HDF3CGF system; type: cell-based, Human
Description: as §1, with “conditions. Vascular biology is modeled in both a Th1 (3C system) and a Th2 (4H system) inflammatory environment, as well as in a Th1 inflammatory state specific to arterial smooth muscle cells (CASM3C system).” for “conditions.”
as §2, with “suspension. For proliferation assays, individual cell types are cultured at subconfluence and measured at time points optimized for each system (48-hrs: 3C and CASM3C systems; 72-hrs: BT and HDF3CGF systems; 96-hrs: SAg system).” for “suspension.”

Substance: low molecular weight dextran sulfate [LMW-DS]
- βIII-tubulin expression ([1]; 0.01 and 0.1 mg/ml): significantly increased
- size of the majority of βIII-tubulin positive cells vs control cultures [1]: smaller
- IL-17A [2]: decreased
- IL-17F [2]: decreased
- antiproliferative effects on B cells [2]: without any antiproliferative effects
- sIgG [2]: decreased
- Decreased biomarker activity ([2]; BT system): sIgG, sIL-17F
- Increased biomarker activity ([2]; BT system): sIL-17A
- Increased biomarker activity [3]: IL-8
- Decreased biomarker activity ([4]; HDF3CGF system): VCAM-1, IP-10,; also recorded: ITAC, MIG, M-CSF
- Increased biomarker activity ([4]; HDF3CGF system): EGFR, MMP-1,; also recorded: PAI-1
- key inflammation biomarkers including MIG, VCAM, IP-10 and ITAC ([4]; all tested concentrations): decreased over all tested concentrations
